Literature values in patent US20040037835A1, “Cytotoxic agents” (priority 1995, published 2004).

Columns and labels:
E. coli nitroreductase = E. coli nitroreductase (Escherichia coli, UniProt P38489)
CHO cells = settings: in vitro co-culture of Walker cells and CHO cells

Chain of E. coli nitroreductase (P38489 whole entry): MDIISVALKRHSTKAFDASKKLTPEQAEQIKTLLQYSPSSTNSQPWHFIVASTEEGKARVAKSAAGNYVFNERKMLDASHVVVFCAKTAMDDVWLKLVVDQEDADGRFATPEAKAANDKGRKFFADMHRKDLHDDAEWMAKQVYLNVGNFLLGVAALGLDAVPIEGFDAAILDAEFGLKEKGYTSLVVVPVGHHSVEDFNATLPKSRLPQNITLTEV

In the case of `NC(=O)c1cc(N2CC2)c([N+](=O)[O-])cc1[N+](=O)[O-]` [CB 1954, 5-(aziridin-1-yl)-2,4-dinitrobenzamide], the “substrate for the enzyme” value (E. coli nitroreductase) is listed as “poor substrate” and the “bystander effect: kill of CHO cells that do not contain nitroreductase” value (CHO cells) is listed as “substantially killed”.
